Results reported in patent EP1137645B1, “ALPHA-METHYLBENZYL-CONTAINING THIOUREA INHIBITORS OF HERPES VIRUSES CONTAINING A […] GROUP” (Wyeth, priority 1998, dated 2000).
≈ marks a conversion by molar mass, not a printed value. Like-named read-outs stand apart in the source and are kept apart here.

Assays:
[1] = tested on: HCMV recombinant mutant virus whose genome contains the prokaryotic beta-glucuronidase gene; assay: microbe, parasite or virus in culture; format: cell-based, human cytomegalovirus; settings: for IC50: Human betaherpesvirus 5, Fibroblast
Method in brief: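 Human foreskin fibroblasts infected with HCMV recombinant carrying beta-glucuronidase under a viral promoter (e.g. RV145) in presence of compound. At 96 h post-infection, lysates assayed for beta-glucuronidase by colorimetric or fluorogenic substrate as replication readout; IC50 estimated from varying compound amounts.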

HSV- I = assay: HSV antiviral (ELISA) assay; format: cell-based; settings: for IC50: read-out: IC50 (ug/ml) HSV
Method in brief: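 Vero cells in DMEM with 2% FBS treated with compound 30 min before HSV-1 infection (MOI 0.006), then incubated ~24 h at 37°C. Viral replication measured by ELISA against glycoprotein D with β-galactosidase-linked secondary and fluorogenic substrate (ex 365/em 450 nm); IC50 relative to untreated fluorescence.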

VZV strain Ellen = assay: VZV antiviral (ELISA) assay; format: cell-based
Method in brief: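 HFF cells infected with VZV Ellen at multiplicity below 0.1 overnight, then mixed infected/uninfected cells seeded with compound in DMEM/2% FBS and incubated three days at 37°C, 5% CO2.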

[2] = Human alphaherpesvirus 3, read-out: % inhibition 10 ug/ml VZV, 10 ug/ml, VZV strain Ellen, HFF cells, ELISA
[3] = Human alphaherpesvirus 3, VZV strain Ellen, HFF cells, ELISA, read-out: IC50 (ug/ml) VZV
[4] = read-out: IC50 ug/ml HCMV, HCMV, human foreskin fibroblasts
[5] = Human alphaherpesvirus 3, HFF, read-out: IC50 (ug/ml) VZV, VZV strain Ellen, HFF cells, ELISA
[6] = Human alphaherpesvirus 3, HFF, read-out: % inhibition 10 ug/ml VZV
[7] = Human alphaherpesvirus 3, HFF, read-out: IC50 (ug/ml) VZV

| Molecule | IC50 (HSV- I; HSV- I, Vero cells, ELISA) [µg/mL] | IC50 [1, 4] [µg/mL] | inhibition at 10 µg/mL (VZV strain Ellen; [6]) [%] | IC50 (VZV strain Ellen; [7]) [µg/mL] | further results |
| --- | --- | --- | --- | --- | --- |
| O=C(Nc1ccc(NC(=S)Nc2ccc3[nH]cnc3c2)cc1)c1ccccc1F [Example 496, N-{4-[3-(1H-Benzoimidazol-5-yl)-thioureido]-phenyl}-2-fluoro-benzamide] | > 10 |  |  |  | IC50 ([1]; read-out: IC50 ug/ml HCMV): 10 µg/mL (≈ 24.7 µM); inhibition at 10 µg/mL (VZV strain Ellen; [2]): 25%; IC50 (VZV strain Ellen; [3]): > 10 µg/mL |
| COCCOc1ccc(NC(=S)Nc2ccc(NC(=O)c3ccccc3F)cc2)cc1Cl [Example 996, N-(4-{3-[3-Chloro-4-(2-methoxy-ethoxy)-phenyl]-thioureido}-phenyl)-2-fluoro-benzamide] |  | > 10 |  |  | IC50 (HSV- I; Vero): > 10 µg/mL; IC50 (VZV strain Ellen; [5]): 10 µg/mL (≈ 21.1 µM) |
| CC(NC(=S)Nc1ccc(NC(=O)c2cc3ccccc3cn2)cc1)c1cc2ccccc2o1 (stereo not shown) [Example 985, Isoquinoline-3-carboxylic acid {4-[3-(1-benzofuran-2-yl-ethyl)-thioureido]-phenyl}-amide] |  | > 10 |  |  | IC50 (HSV- I; Vero): > 10 µg/mL; IC50 (VZV strain Ellen; [5]): 0.035 µg/mL (≈ 0.075 µM) |
| COc1cc(OC)c(NC(=S)Nc2ccc(NC(=O)c3ccccc3-c3ccccc3)cc2)cc1Cl [Example 182, Biphenyl-2-carboxylic acid {4-[3-(5-chloro-2,4-dimethoxy-phenyl)-thioureido]-phenyl}-amide] |  | 10 (≈ 19.3 µM) | 32 |  | IC50 (HSV- I; Vero): 10 µg/mL (≈ 19.3 µM); IC50 (VZV strain Ellen; [5]): > 10 µg/mL |
| O=C(Nc1ccc(NC(=S)NCc2cc(C(F)(F)F)cc(C(F)(F)F)c2)cc1)c1ccccc1F [Example 543, N-{4-[3-(3,5-Bis-trifluoromethyl-benzyl)-thioureido]-phenyl}-2-fluoro-benzamide] | > 10 |  |  |  | IC50 ([1]; read-out: IC50 ug/ml HCMV): 0.3 µg/mL (≈ 0.582 µM); IC50 (VZV strain Ellen; [3]): > 10 µg/mL |
| O=C(Nc1ccc(NC(=S)NCc2ccc3c(c2)OCO3)cc1)c1ccccc1F [Example 540, N-[4-(3-Benzo[1,3]dioxol-5-ylmethyl-thioureido)-phenyl]-2-fluoro-benzamide] | > 10 |  |  |  | IC50 ([1]; read-out: IC50 ug/ml HCMV): > 0.5 µg/mL; IC50 (VZV strain Ellen; [3]): > 10 µg/mL |
| COc1ccccc1C(=O)Nc1ccc(NC(=S)Nc2cc(Cl)c(OC)c(Cl)c2)cc1 [Example 873, N-{4-[3-(3,5-Dichloro-4-methoxy-phenyl)-thioureido]-phenyl}-2-methoxy-benzamide] | > 10 | 0.3 (≈ 0.63 µM) | 23 | > 10 |  |
| O=C(Nc1ccc(NC(=S)Nc2ccc(Br)c(Cl)c2)cc1)c1ccccc1F [Example 915, N-{4-[3-(4-Bromo-3-chloro-phenyl)-thioureido]-phenyl}-2-fluoro-benzamide] | > 10 |  |  |  | IC50 ([1]; read-out: IC50 ug/ml HCMV): > 10 µg/mL; inhibition at 10 µg/mL (VZV strain Ellen; [2]): 29%; IC50 (VZV strain Ellen; [3]): > 10 µg/mL |
| COc1cc(OC)c(NC(=S)Nc2ccc(NC(=O)c3ccccc3C(F)(F)F)cc2)cc1Cl [Example 138, N-{4-[3-(5-Chloro-2,4-dimethoxy-phenyl)-thioureido]-phenyl}-2-trifluoro-methyl-benzamide] | 1 (≈ 1.96 µM) | 8 (≈ 15.7 µM) | 57 | > 10 |  |
| CC(NC(=S)Nc1ccc(NC(=O)c2ccc(O)cc2)cc1)c1ccc(F)cc1 (stereo not shown) [Example 760, N-(4-{3-[1-(4-Fluoro-phenyl)-ethyl]-thioureido}-phenyl)-4-hydroxy-benzamide] | > 10 |  |  |  | IC50 ([1]; read-out: IC50 ug/ml HCMV): > 10 µg/mL; IC50 (VZV strain Ellen; [3]): > 10 µg/mL |
| CC(NC(=S)Nc1ccc(NC(=O)c2cc3ccccc3cn2)cc1)c1ccc(Br)cc1 (stereo not shown) [Example 987, Isoquinoline-3-carboxylic acid (4-{3-[1-(4-bromo-phenyl)-ethyl]-thioureido}-phenyl)-amide] |  | 1.5 (≈ 2.97 µM) |  |  | IC50 (HSV- I; Vero): 3 µg/mL (≈ 5.94 µM); IC50 (VZV strain Ellen; [5]): 0.046 µg/mL (≈ 0.091 µM) |
| COc1cc(OC)c(NC(=S)Nc2ccc(NC(=O)c3ccccc3Br)cc2)cc1Cl [Example 142, 2-Bromo-N-{4-[3-(5-chloro-2,4-dimethoxy-phenyl)-thioureido]-phenyl}-benzamide] | 0.4 (≈ 0.768 µM) |  |  |  | IC50 ([1]; read-out: IC50 ug/ml HCMV): 10 µg/mL (≈ 19.2 µM); inhibition at 10 µg/mL (VZV strain Ellen; [2]): 51%; IC50 (VZV strain Ellen; [3]): > 15 µg/mL |
| COc1cc(OC)c(NC(=S)Nc2ccc(NC(=O)c3cccc(OCc4ccccc4)c3)cc2)cc1Cl [Example 210, 3-Benzyloxy-N-{4-[3-(5-chloro-2,4-dimethoxy-phenyl)-thioureido]-phenyl}-benzamide] | 5 (≈ 9.12 µM) | > 10 | 14 | > 10 |  |
| CN(C)c1cc(Cl)cc(NC(=S)Nc2ccc(NC(=O)c3ccccc3F)cc2)c1 [Example 523, N-{4-[3-(3-Chloro-5-dimethylamino-phenyl)-thioureido]-phenyl}-2-fluoro-benzamide] | 0.6 (≈ 1.35 µM) | 3.2 (≈ 7.22 µM) | 75 | 4 (≈ 9.03 µM) |  |
| Cc1ccc(NC(=S)Nc2ccc(NC(=O)c3ccccc3F)cc2)cc1Cl [Example 231, N-{4-[3-(3-Chloro-4-methyl-phenyl)-thioureido]-phenyl}-2-fluoro-benzamide] | 0.5 (≈ 1.21 µM) | > 10 | 11 | > 10 |  |
| C[C@H](NC(=S)Nc1ccc(NC(=O)c2ccccc2F)cc1)c1ccc(Br)cc1 [Example 1004, (S)-N-(4-{3-[1-(4-Bromo-phenyl)-ethyl]-thioureido}-phenyl)-2-fluoro-benzamide] |  | 4.2 (≈ 8.89 µM) |  |  | IC50 (HSV- I; Vero): > 10 µg/mL; IC50 (VZV strain Ellen; [5]): 0.06 µg/mL (≈ 0.127 µM) |
| COc1cc(OC)c(NC(=S)Nc2ccc(NC(=O)c3c(F)c(F)c(F)c(F)c3F)cc2)cc1Cl [Example 193, N-{4-[3-(5-Chloro-2,4-dimethoxy-phenyl)-thioureido]-phenyl}-2,3,4,5,6-pentafluoro-benzamide] | 1.5 (≈ 2.82 µM) | > 10 | 106 | 3.8 (≈ 7.14 µM) |  |
| Cc1ccccc1C(=O)Nc1ccc(NC(=S)Nc2ccc(N(C)C3CCN(Cc4ccccc4)C3)c(Cl)c2)cc1 (stereo not shown) [Example 374, N-[4-(3-{4-[(1-Benzyl-pyrrolidin-3-yl)-methyl-amino]-3-chloro-phenyl}-thioureido)-phenyl]-2-methyl-benzamide] | 3 (≈ 5.14 µM) | 3 (≈ 5.14 µM) | 70 | 4 (≈ 6.85 µM) |  |
| CC(C)(C)c1cccc(NC(=S)Nc2ccc(NC(=O)c3ccccc3F)cc2)c1 [Example 869, N-{4-[3-(3-tert-Butyl-phenyl)-thioureido]-phenyl}-2-fluoro-benzamide] | 5.5 (≈ 13 µM) | 2.5 (≈ 5.93 µM) | 77 | 3 (≈ 7.12 µM) |  |
| COc1ccc(C(=O)Nc2ccc(NC(=S)Nc3cc(Br)c(OC)cc3OC)cc2)cc1 [Example 830, N-{4-[3-(5-Bromo-2,4-dimethoxy-phenyl)-thioureido]-phenyl}-4-methoxy-benzamide] | 1.5 (≈ 2.9 µM) | > 10 | 16 | > 10 |  |
| COc1cc(C)c(Cl)cc1NC(=S)Nc1ccc(NC(=O)c2ccccc2F)cc1Cl [Example 458, N-{3-Chloro-4-[3-(5-chloro-2-methoxy-4-methyl-phenyl)-thioureido]-phenyl}-2-fluoro-benzamide] | 0.06 (≈ 0.125 µM) | > 10 | 25 | > 10 |  |
| CCSc1ccc(NC(=S)Nc2ccc(NC(=O)c3ccccc3F)cc2)cc1Cl [Example 386, N-{4-[3-(3-Chloro-4-ethylsulfanyl-phenyl)-thioureido]-phenyl}-2-fluoro-benzamide] | > 10 | 2 (≈ 4.35 µM) | 29 | > 10 |  |
| CCCCC(NC(=S)Nc1ccc(NC(=O)c2ccccc2F)cc1)c1ccc(F)cc1 (stereo not shown) [Example 773, 2-Fluoro-N-(4-{3-[1-(4-fluoro-phenyl)-pentyl]-thioureido}-phenyl)-benzamide] |  | 1.2 (≈ 2.65 µM) |  |  | IC50 (HSV- I; Vero): > 10 µg/mL; IC50 (VZV strain Ellen; [5]): > 7.5 µg/mL |
| O=C(Nc1ccc(NC(=S)NCc2cccc(Cl)c2)cc1)c1ccccc1F [Example 511, N-{4-[3-(3-Chloro-benzyl)-thioureido]-phenyl}-2-fluoro-benzamide] | > 10 | > 10 | 10 | > 10 |  |
| CC(C)c1cccc(NC(=S)Nc2ccc(NC(=O)c3ccccc3F)cc2)c1 [Example 452, 2-Fluoro-N-{4-[3-(3-isopropyl-phenyl)-thioureido]-phenyl}-benzamide] | 4 (≈ 9.82 µM) | 2 (≈ 4.91 µM) | 75 | 1 (≈ 2.45 µM) |  |
| CC(C)CN(C)c1cc(NC(=S)Nc2ccc(NC(=O)c3ccccc3F)cc2)cc(C(F)(F)F)c1 [Example 596, 2-Fluoro-N-(4-{3-[3-(isobutyl-methyl-amino)-5-trifluoromethyl-phenyl]-thioureido}-phenyl)-benzamide] |  | 2 (≈ 3.86 µM) |  |  | IC50 (HSV- I; Vero): > 10 µg/mL; IC50 (VZV strain Ellen; [5]): > 10 µg/mL |
| N-{4-[3-(3-Chloro-4-methoxy-phenyl)-thioureido]-phenyl}-4-methoxy-benzamide [Example 821] |  |  |  |  | IC50 ug/ml HCMV ([1]; HCMV, human foreskin fibroblasts): 1 µg/mL; IC50 (ug/ml) HSV (HSV- I; HSV- I, Vero cells, ELISA): 0.15 µg/mL; % inhibition 10 ug/ml VZV (VZV strain Ellen; 10 ug/ml, VZV strain Ellen, HFF cells, ELISA): 55%; IC50 (ug/ml) VZV (VZV strain Ellen; VZV strain Ellen, HFF cells, ELISA): >10 µg/mL |
| O=C(Nc1ccc(NC(=S)Nc2cccc(S(=O)(=O)CCO)c2)cc1)c1ccccc1F [Example 969, 2-Fluoro-N-(4-{3-[3-(2-hydroxy-ethanesulfonyl)-phenyl]-thioureido}-phenyl)-benzamide] | > 10 | > 10 | 19 | > 10 |  |
